Where a SMILES comes first, the peptide text is derived from it. Bridges are numbered along the chain shown (N, C = ends). [ ]: non-standard residue; d: D form. The star is where a group is joined. Pentanoyl(5-guanidino) = NC(N)=NCCCCC(=O)*
Key:
[1] = molecular target: human MCH-1R (Homo sapiens, UniProt Q99705); assay: Aequorin bioluminescence functional assay, MCH-1R; settings: for MCH-1R Activation %: % Activation at 10 μM, aequorin functional assay
Protocol: The aequorin bioluminescence assay can be used to measure the activity of G protein-coupled receptors that couple through the Gα protein subunit family consisting of Gq and G11. Such coupling leads to phospholipase C activation, intracellular calcium mobilization and protein kinase C activation.
Following approximately 40 hours of expression the apo-aequorin in the cells was charged for 4 hours with coelenterazine (10 μM) under reducing conditions (300 μM reduced glutathione) in ECB buffer (140 mM NaCl, 20 mM KCl, 20 mM HEPES-NaOH [pH=7.4], 5 mM glucose, 1 mM MgCl2, 1 mM CaCl2, 0.1 mg/ml bovine serum albumin).
The cells were harvested, washed once in ECB medium and resuspended to 500,000 cells/ml. 100 μl of cell suspension (corresponding to 5×10^4 cells) was then injected into the test plate containing MCH or MCH analogs, and the integrated light emission was recorded over 30 seconds, in 0.5 second units. 20 μL of lysis buffer (0.1% final Triton X-100 concentration) was then injected and the integrated light emission recorded over 10 seconds, in 0.5 second units. The “fractional response” values for each well were calculated by taking the ratio of the integrated response to the initial challenge to the total integrated luminescence including the Triton X-100 lysis response.

[2] = molecular target: human MCH-R2 (Homo sapiens, UniProt Q969V1); assay: Aequorin bioluminescence functional assay, MCH-2R; settings: for MCH-2R Activation % / EC50: Table 1, aequorin functional assay; for MCH-2R Activation %: % Activation at 10 μM; for EC50: MCH-2R EC50 (nM), 293-AEQ17 cells; for selective activity at MCH-2R over MCH-1R: greater binding and/or activation at MCH-2R than at MCH-1R
human MCH-R2, sequence (Q969V1 whole entry): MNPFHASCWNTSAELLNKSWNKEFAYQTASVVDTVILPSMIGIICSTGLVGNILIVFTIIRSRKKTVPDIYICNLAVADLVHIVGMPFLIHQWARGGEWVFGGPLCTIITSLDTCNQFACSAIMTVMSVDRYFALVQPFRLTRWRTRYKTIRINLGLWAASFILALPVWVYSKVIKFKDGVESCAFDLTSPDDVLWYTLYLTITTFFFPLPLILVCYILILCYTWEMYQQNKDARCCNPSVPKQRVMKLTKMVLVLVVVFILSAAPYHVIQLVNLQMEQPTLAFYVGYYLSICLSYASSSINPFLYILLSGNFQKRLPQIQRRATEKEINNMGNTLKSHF

human MCH-1R, sequence (Q99705 whole entry): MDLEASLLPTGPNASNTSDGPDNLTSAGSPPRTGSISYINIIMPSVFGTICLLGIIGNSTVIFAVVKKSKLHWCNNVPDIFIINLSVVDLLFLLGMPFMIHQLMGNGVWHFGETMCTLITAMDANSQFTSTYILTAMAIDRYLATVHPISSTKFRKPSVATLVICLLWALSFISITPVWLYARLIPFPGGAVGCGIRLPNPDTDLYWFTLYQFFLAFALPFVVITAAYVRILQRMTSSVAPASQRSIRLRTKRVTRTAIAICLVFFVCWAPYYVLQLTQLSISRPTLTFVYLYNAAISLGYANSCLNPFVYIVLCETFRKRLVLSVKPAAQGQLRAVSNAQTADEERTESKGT

Row | Compound | MCH-1R Activation % ([1]; Table 2) [%] | MCH-1R Activation % ([1]; Table 1) [%] | MCH-2R Activation % [2] [%] | EC50 [2] [nM] | selective activity at MCH-2R over MCH-1R [2] | EC50 [1] [nM]
1 | CSCC[C@@H]1NC(=O)[C@@H](NC(=O)[C@H](CCCNC(=N)N)NC(C)=O)CSSC[C@@H](C(N)=O)NC(=O)[C@@H]2CCCN2C(=O)[C@H](CCCNC(=N)N)NC(=O)[C@H](Cc2ccc(O)cc2)NC(=O)[C@H](C(C)C)NC(=O)[C@H](CCCNC(=N)N)NC(=O)CNC(=O)[C@H](CC(C)C)NC1=O [compound 2] | 99 | – | – | – | – | –
2 | CSCC[C@@H]1NC(=O)[C@@H](NC(C)=O)CSSC[C@@H](C(N)=O)NC(=O)[C@@H]2CCCN2C(=O)[C@H](CCCNC(=N)N)NC(=O)[C@H](Cc2ccc(O)cc2)NC(=O)[C@H](C(C)C)NC(=O)[C@H](CCCNC(=N)N)NC(=O)CNC(=O)[C@H](CC(C)C)NC1=O [compound 3] | – | 6.5 | – | – | – | –
3 | CSCC[C@@H]1NC(=O)[C@@H](NC(=O)[C@H](CCCNC(=N)N)NC(C)=O)CSSC[C@@H](C(N)=O)NC(=O)[C@@H]2CCCN2C(=O)[C@H](CCCNC(=N)N)NC(=O)[C@H](Cc2ccc(O)cc2)NC(=O)[C@H](C(C)C)NC(=O)[C@H](CCCNC(=N)N)NC(=O)[C@H](C)NC(=O)[C@H](CC(C)C)NC1=O [compound 7] | – | 104 | 97 | – | – | –
4 | CSCC[C@@H]1NC(=O)[C@@H](NC(=O)[C@H](CCCNC(=N)N)NC(C)=O)CSSC[C@@H](C(N)=O)NC(=O)[C@@H]2CCCN2C(=O)[C@H](CCCNC(=N)N)NC(=O)[C@H](Cc2ccc(O)cc2)NC(=O)[C@H](C(C)C)NC(=O)[C@H](CCCNC(=N)N)NC(=O)[C@H](CC(C)C)NC(=O)[C@H](CC(C)C)NC1=O [compound 8] | – | 106 | 80 | – | – | –
5 | CSCC[C@@H]1NC(=O)[C@@H](NC(=O)[C@H](CCCNC(=N)N)NC(C)=O)CSSC[C@@H](C(N)=O)NC(=O)[C@@H]2CCCN2C(=O)[C@H](CCCNC(=N)N)NC(=O)[C@H](Cc2ccc(O)cc2)NC(=O)[C@H](C(C)C)NC(=O)[C@H](CCCNC(=N)N)NC(=O)[C@H](CO)NC(=O)[C@H](CC(C)C)NC1=O [compound 10] | – | 104 | 95 | – | – | –
6 | CSCC[C@@H]1NC(=O)[C@@H](NC(=O)[C@H](CCCNC(=N)N)NC(C)=O)CSSC[C@@H](C(N)=O)NC(=O)[C@@H]2CCCN2C(=O)[C@H](CCCNC(=N)N)NC(=O)[C@H](Cc2ccc(O)cc2)NC(=O)[C@H](C(C)C)NC(=O)[C@H](CCCNC(=N)N)NC(=O)C(C)(C)NC(=O)[C@H](CC(C)C)NC1=O [compound 11] | – | 22 | 104 | 24 | selectively active | –
7 | CSCC[C@@H]1NC(=O)[C@@H](NC(=O)[C@H](CCCNC(=N)N)NC(C)=O)CSSC[C@@H](C(N)=O)NC(=O)[C@@H]2CCCN2C(=O)[C@H](CCCNC(=N)N)NC(=O)[C@H](Cc2ccc(O)cc2)NC(=O)[C@H](C(C)C)NC(=O)[C@H](CCCNC(=N)N)NC(=O)[C@H](c2ccccc2)NC(=O)[C@H](CC(C)C)NC1=O [compound 12] | – | 0.1 | 80 | 140 | selectively active | > 10000
8 | CSCC[C@@H]1NC(=O)[C@@H](NC(=O)[C@H](CCCNC(=N)N)NC(C)=O)CSSC[C@@H](C(N)=O)NC(=O)[C@@H]2CCCN2C(=O)[C@H](CCCNC(=N)N)NC(=O)[C@H](Cc2ccc(O)cc2)NC(=O)[C@H](C(C)C)NC(=O)[C@H](CCCNC(=N)N)NC(=O)[C@@H](C)NC(=O)[C@H](CC(C)C)NC1=O [compound 13] | – | 40 | 103 | 16 | selectively active | –
9 | CSCC[C@@H]1NC(=O)[C@@H](NC(=O)CCCCNC(=N)N)CSSC[C@@H](C(N)=O)NC(=O)[C@@H]2CCCN2C(=O)[C@H](CCCNC(=N)N)NC(=O)[C@H](Cc2ccc(O)cc2)NC(=O)[C@H](C(C)C)NC(=O)[C@H](CCCNC(=N)N)NC(=O)[C@@H](C)NC(=O)[C@H](CC(C)C)NC1=O [compound 34] ({Pentanoyl(5-guanidino)}-CML[dA]RVYRPC-NH2; disulfide 1-10) | – | – | – | – | selectively active | –

From patent publication US7314861B2, “Melanin-concentrating hormone analogs” (priority 2001, dated 2008)
